# What was measured:
# [1] = powder nasal spray, encapsulated in starch microspheres
# Description: A subject is administered nicotine by means of a powder nasal spray. The nicotine is prepared as the diacesulfamate and is encapsulated in starch microspheres.
# [2] = oral inhaler, water solution
# Description: A subject is administered nicotine by means of an oral inhaler. The nicotine is prepared as the diacesulfamate and is prepared in water solution.
# [3] = metered nasal spray 0.4 mg nicotine equivalent
# Description: A subject who was an addicted smoker was provided a metered nasal spray delivering 0.4 mg of nicotine equivalent in form of nicotine diacesulfamate. The nicotine salt was dissolved in water without any other additive ingredients.
# [4] = nasal, single doses of one mg, in man; cited from earlier work
# [5] = cited from earlier work
structure (smiles),measurement,setting,value
CC1=CC(=O)NS(=O)(=O)O1.CC1=CC(=O)NS(=O)(=O)O1.CN1CCC[C@H]1c1cccnc1 [nicotine diacesulfamate],burning feeling on administration,[1],No burning feeling is noted
same,relief from cravings to smoke,[1],relief from the cravings to smoke soon after use
same,"burning feeling in buccal area, throat or lungs",[2],No burning feeling is noted
same,relief from craving to smoke,[2],relief from craving to smoke soon after use
same,relief from desire to smoke,"[3]; addicted smoker, dissolved in water, once in each nostril",relief from desire to smoke within two minutes
same,taste and feelings in the nostril,[3]; in water,"not unpleasant, but distinctive"
same,"irritation to nasal mucosa, throat or lungs","[3]; in water, once in each nostril","No report was made of any irritation to nasal mucosa, nor to the throat or lungs"
CN1CCCC1c1cccnc1 (stereo not shown) [nicotine],time to maximum concentration,[4],≤ 10 min
"CC1=CC(=O)NS(=O)(=O)O1 [Acesulfamic acid, 6-Methyl-1,2,3-Oxathiazin-4(3H)1,2,2-dioxide H]",solubility in alcohol and non-polar solvents,[5]; alcohol and non-polar solvents,soluble
same,solubility in water,[5]; water,only sparingly soluble

# Reference: patent US20030171408A1, “Therapeutic method of delivering a medicament to avoid irritating effects on membranes of user” (priority 2002, published 2003)
